Tests used:
[1] = test system: internal anal pressure, patients with incontinence or constipation; test: NΩ-Nitro-L-arginine ointment in and around the anal canal, manometry before and after application; type: in vivo, human; details: 1% ointment, twelve patients
Experimental: A 1% ointment was prepared by mixing […] of NΩ-Nitro-L-arginine (obtained from Fluka—part of the Sigma group) in 19.8 g of unguentum merk base.
The ointment was then applied in and around the anal canal of twelve patients and the interanal pressure measured by manometry (as discussed previously) before and shortly after application of the ointment.

[2] = test system: maximum resting anal pressure, patients with passive faecal incontinence; test: Patient group with passive faecal incontinence, intraanal 10% phenylephrine, manometry
[3] = test system: resting anal sphincter pressure, human volunteers; test: Topical phenylephrine gel dose ranging in volunteers: resting anal sphincter pressure and anodermal blood flow; type: in vivo; details: for rise in mean resting anal sphincter pressure (MRP): topical, twelve volunteers
Experimental: A composition of base gel had the following composition: carmellose sodium 6 g, polyethylene glycol 30 ml, methylhydroxybenzoate 150 mg, propylhydroxybenzoate 15 mg, made up to volume with distilled water (pH4).
Various amounts of phenylephrine was added at 5%, 10%, 20% and 30% w/w to form various compositions for dose ranging studies (FIG. 2).
Twelve human volunteers aged 21 to 53 (mean 35) were studied on 4 occasions. Measurements of resting anal sphincter pressure and anodermal blood flow (using a laser doppler flowmeter) were taken before and after topical application of increasing concentrations of phenylephrine gel according to example 3 (supplied by Slaco Pharma (UK) Ltd) to the anus. Readings were taken through the day after a single application in order to determine the duration of effect.

[4] = test system: maximum resting anal pressure, healthy volunteers; test: Healthy volunteer group, intraanal 10% phenylephrine, manometry; details: 0.5 ml 10% (50 mg) intraanal
[5] = test system: patients with ileo-anal pouch and fecal incontinence; test: Randomised placebo controlled cross over trial of 10% phenylephrine cream in patients with ileo-anal pouch; type: in vivo, human
Experimental: A prospective randomised placebo controlled cross over trial was undertaken to evaluate the use of phenylephrine 10% topical cream (according to examples 2a and 3) for treatment of fecal incontinence in patients with ilco-anal pouch.
10 Patients are mainly troubled by nocturnal incontinence only, and 2 have both daytime and nocturnal incontinence.
Of the 10 completed studies, there were 7 women and 3 men, age range (34-67). Anorectal manometry was performed and laser doppler fowmetry on all patients. Incontinence score was determined. All these outcome measures were repeated after treatment with both trial creams (phenylephrine and placebo).

[6] = test system: patients with idiopathic passive fecal incontinence; test: Randomised placebo controlled cross over trial of 10% phenylephrine cream in idiopathic passive fecal incontinence; type: in vivo, human
Experimental: A prospective randomised placebo controlled cross over trial was undertaken to evaluate the use of 10% phenylephrine topical cream (according to examples 3 and 4) for treatment of idiopathic passive fecal incontinence.
30 Patients completed the study. All patients were assessed by endoanal ultrasound as well as anorectal physiology (to determine maximum resting anal pressure) and laser doppler flowmetry prior to treatment. The latter two measurements are repeated after a 3 week trial of the active agent (phenylephrine 10%) and placebo ‘Incontinence scores’ are determined before and after each treatment.

[7] = test system: maximum resting anal pressure, single healthy volunteer; test: Dose response study in single volunteer, intraanal phenylephrine solution, manometry
anal resting pressure = test: Phenylephrine ointment applied to anal margin, anal manometry; type: in vivo, human; details: ointment in yellow soft paraffin, up to approximately 500 mg 10% ointment (50 mg of phenylephrine)
Experimental: Preparations of commercially available ophthalmic 10% phenylephrine hydrochloride (Minims) solution were administered intraanally with the subject in the left lateral position.

[8] = test system: minor incontinence after ileoanal anastomosis; details: Surgery 1990; 107: p 311-315; cited from earlier work
[9] = topical 10% phenylephrine cream

NC(=NCCC[C@H](N)C(=O)O)N[N+](=O)[O-] [NΩ-Nitro-L-arginine]
effect on resting internal anal sphincter pressure (in words) [1]: increase the resting internal an1 sphincter pressure

CNC[C@H](O)c1cccc(O)c1 [phenylephrine]
median maximum resting pressure after instillation ([2]; 0.5 ml 10% (50 mg) intraanal, ten patients, pre median 25, post range 20-80, 5.5 KPa, p=0.39): 55 cm H2O | patients demonstrating a rise in anal pressure ([2]; of ten patients, two showed a fall, one no change): Seven | rise in mean resting anal sphincter pressure (MRP) ([3]; 5% phenylephrine gel, p 0.04): 6% | duration of action of a single application (median) ([3]; 10% phenylephrine gel): 7 (range 6 to 8) hours | rise in mean resting anal sphincter pressure (MRP) ([3]; 10% phenylephrine gel, versus pre-treatment): 33% | post treatment MRP ([3]; 10% phenylephrine gel, pre-treatment 85±2, P<0.0001): 127±12 cmH2O | response of MRP at concentrations higher than 10% ([3]; higher concentrations of phenylephrine gel (20%, 30% w/w)): no additional response | changes in anodermal blood flow ([3]; laser doppler flowmeter, topical phenylephrine gel): No notable changes | maximum resting pressure after application (median) ([4]; ten healthy volunteers, pre median 110, post range 120-210, 17.5 KPa, p<0.05): 180 cm H2O | time increased pressure was maintained (duration of the recording, median) ([4]; range 14-31 minutes): ≥ 23 min | patients with significant improvement of symptoms ([5]; 6/10 patients, phenylephrine 10% compared to placebo): 60% | improvement of incontinence scores (mean) ([5]; after phenylephrine 10%, 3% after placebo): 45% | increase in mean resting anal sphincter pressure compared to baseline ([5]; in the improved patients, after phenylephrine 10%, -8% on placebo, p<0.005): 29% | differences in anodermal blood flow ([5]; laser doppler flowmetry): No differences | patients with objective improvement (anal sphincter pressure) ([5]; of the 7 improved patients): 6 patients | patients with no improvement ([5]; phenylephrine 10% cream): 3/10 | mean subjective improvement in symptoms reported by patients ([5]; phenylephrine 10% cream, 14% after placebo, p<0.01): 83% | improvement of incontinence score, one patient ([5]; single patient without measurable pressure increase): 47% | subjective improvement, one patient ([5]; single patient, after phenylephrine compared to placebo): 75% | anal sphincter pressure, one patient ([5]; single patient, phenylephrine 10% cream): no measurable increase | patients with improvement of symptoms of incontinence (summary) [5, 9]: 7/10 | mean resting pressure post phenylephrine ([6]; 10% phenylephrine, from 62 pre, no significant change): 58 cmH2O | incontinence score (mean) after treatment ([6]; 10% phenylephrine, improved from mean of 14): 10 | change in anodermal blood flow ([6]; laser doppler flowmetry, after 10% phenylephrine): no significant change | patients with significant subjective improvement of symptoms ([6]; three of 30 patients, 10% cream for 3 weeks, versus baseline and placebo): 10% | patients with subjective improvement of symptoms (summary) [6, 9]: 3/30 | increase in maximum resting pressure ([7]; 0.5 ml 0.1% (0.5 mg) intraanal): no significant increase | increase in maximum resting pressure ([7]; 0.5 ml 0.5% (2.5 mg) intraanal): no significant increase | increase in maximum resting pressure ([7]; 0.5 ml 1% (5 mg) intraanal): no significant increase | increase in maximum resting pressure ([7]; 0.5 ml 5% (25 mg) intraanal): no significant increase | resting pressure after instillation ([7]; 0.5 ml 10% (50 mg) into the anal canal, from 120 cm H2O before (12-21 KPa)): 210 cm H2O | time over which increase in resting anal pressure was evident (continuous recording) ([7]; 0.5 ml 10% (50 mg) intraanal): ≥ 25 min | resting anal pressure 13 hours later ([7]; 0.5 ml 10% (50 mg) intraanal, manometry repeated at 13 hours): returned to pre-treatment level | effect of ointment applied to the anal margin (anal resting pressure): no effect

CCCC(CCC)C(=O)[O-].[Na+] [sodium valproate]
treatment of minor incontinence after ileoanal anastomosis [8]: useful

Source: US7781444B2, “Pharmaceutical composition for treating fecal incontinence and anal itch” (S.L.A. Pharma AG, priority 1996, dated 2010)
